IC50 data for nine compounds are collected here from patent US12209102B2, “Heterocyclic compounds and uses thereof” (Kumquat Biosciences Inc., priority 2022, dated 2025).

One test deals with T1, K-Ras G12D (Homo sapiens, UniProt P01116, G12D).
T1 construct: made in house; host or cells: E. coli BL21 (DE3)
The experiment in a line: HTRF resonance energy transfer assay, K-Ras G12D / SOS1 interaction. The test is classed as biochemical. The following applies: HTRF assay of Example 5; read-out: IC50 against K-Ras G12D. The method, boiled down: (§1)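 Compounds, tested in duplicate at 10 μM down to 0.01 μM, were read after about 10 min or more by HTRF as the 665/620 nm emission ratio (337 nm excitation) to derive IC50. This ratio reports FRET between an anti-GST-Eu donor on GST-K-Ras (wild-type or mutant) and an anti-6His-XL665 acceptor on His-hSOS1. Buffer: ~5 mM HEPES pH 7.4, 150 mM NaCl, 1 mM DTT, 0.05% BSA, 0.0025% Igepal.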
For orientation: TR-FRET usually uses a lanthanide donor and a delayed reading to cut background.

Another test addresses T2, K-Ras G12S (Homo sapiens, UniProt P01116, G12S).
T2 construct: made in house; host or cells: E. coli BL21 (DE3)
Kind of test: HTRF resonance energy transfer assay, K-Ras G12S / SOS1 interaction. The test is classed as biochemical. The following applies: HTRF assay of Example 5; read-out: IC50 against K-Ras G12S. The method, boiled down: as §1

The target of another test is T3, K-Ras G12V (Homo sapiens, UniProt P01116, G12V).
T3 construct: made in house; host or cells: E. coli BL21 (DE3)
T3 sequence (P01116 1-188 isoform P01116-2 G12V): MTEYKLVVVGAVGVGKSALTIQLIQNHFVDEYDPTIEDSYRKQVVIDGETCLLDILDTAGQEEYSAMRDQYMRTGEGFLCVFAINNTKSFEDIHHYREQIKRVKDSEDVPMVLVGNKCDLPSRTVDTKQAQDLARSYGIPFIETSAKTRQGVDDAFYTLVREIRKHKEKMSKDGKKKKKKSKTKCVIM
The experiment in a line: HTRF resonance energy transfer assay, K-Ras G12V / SOS1 interaction. The following applies: HTRF assay of Example 5; read-out: IC50 against K-Ras G12V. Format: biochemical. Summed up:
as §1

Another test has as its target T4, K-Ras WT (Homo sapiens, UniProt P01116).
T4 construct: made in house; host or cells: E. coli BL21 (DE3)
Kind of test: HTRF resonance energy transfer assay, K-Ras WT / SOS1 interaction. Format: biochemical. As to conditions: HTRF assay of Example 5; read-out: IC50 against K-Ras WT. Summed up:
as §1

A further test has as its system GP2D cells. Kind of test: Ras cellular assay, growth of cells with K-Ras G12D mutation (CellTiter-Glo). Format: cell-based. The following applies: cell growth, Example 9, G12D mutation, read-out: IC50 against GP2D cells. A general note: In ATP-based viability assays light output follows the ATP content of the culture.
The subject of another test is A549 cells. Kind of test: Ras cellular assay, growth of cells with K-Ras G12S mutation (CellTiter-Glo). Format: cell-based. As to conditions: Homo sapiens, cell growth, Example 9, G12S mutation, read-out: IC50 against A549 cells. The method, boiled down:
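Growth inhibition IC50 values come from four-parameter fits of CellTiter-Glo luminescence, read about 6 days after compound addition. G12S-mutant A549 cells (e.g. 800/well, RPMI-1640 + 10% heat-inactivated FBS) were plated in tissue-culture-treated or ultra-low-attachment 384-well format. Dosing began the following day with serial dilutions, e.g. 10 points, 3-fold.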

The next test concerns SW620 cells. Kind of test: Ras cellular assay, growth of cells with K-Ras G12V mutation (CellTiter-Glo). The following applies: Homo sapiens, SW-620; cell growth, Example 9, G12V mutation; read-out: IC50 against SW620 cells. Format: cell-based. The method, boiled down: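 IC50 values came from a four-parameter fit of CellTiter-Glo viability, read roughly 6 days after dosing with e.g. a 10-point threefold dilution series. G12V-mutant SW620 cells (e.g. 800 per well) had been plated the previous day in RPMI-1640/10% heat-inactivated FBS, on tissue culture-treated or ultra-low attachment plates.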

Each structure is given as a SMILES string.

T4 sequence (P01116 1-188 isoform P01116-2): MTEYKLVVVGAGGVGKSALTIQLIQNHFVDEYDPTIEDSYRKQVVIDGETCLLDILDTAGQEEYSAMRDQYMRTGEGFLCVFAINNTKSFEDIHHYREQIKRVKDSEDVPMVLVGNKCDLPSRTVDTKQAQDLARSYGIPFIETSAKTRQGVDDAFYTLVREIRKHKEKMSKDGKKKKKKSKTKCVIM
T1 sequence (P01116 1-188 isoform P01116-2 G12D): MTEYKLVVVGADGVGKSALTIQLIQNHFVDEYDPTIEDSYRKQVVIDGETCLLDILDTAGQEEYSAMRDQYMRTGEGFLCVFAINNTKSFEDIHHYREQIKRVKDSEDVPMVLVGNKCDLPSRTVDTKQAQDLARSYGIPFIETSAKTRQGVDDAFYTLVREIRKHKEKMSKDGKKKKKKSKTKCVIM
T2 sequence (P01116 1-188 isoform P01116-2 G12S): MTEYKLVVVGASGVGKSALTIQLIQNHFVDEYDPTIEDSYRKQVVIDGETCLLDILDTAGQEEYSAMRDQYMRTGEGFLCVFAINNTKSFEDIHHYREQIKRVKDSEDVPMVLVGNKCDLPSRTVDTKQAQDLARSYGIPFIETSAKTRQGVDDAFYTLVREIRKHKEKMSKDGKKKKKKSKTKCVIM

`N#Cc1c(N)sc2c(F)ccc(-c3c(Cl)c4c5c(nc(OC[C@@]67CCCN6C[C@H](F)C7)nc5c3F)N(C3CCN(C(=O)COC(F)F)C3)CCO4)c12` (stereo partly drawn) [Compound 785, 2-amino-4-(8-chloro-4-(1-(2-(difluoromethoxy)acetyl)pyrrolidin-3-yl)-10-fluoro-2-(((2R,7aS)-2-fluorotetrahydro-1H-pyrrolizin-7a(5H)-yl)methoxy)-5,6-dihydro-4H-[1,4]oxazepino[5,6,7-de]quinazolin-9-yl)-7-fluorobenzo[b]thiophene-3-carbonitrile]: the half-maximal inhibitory concentration (IC50) (commonly the midpoint of a concentration-inhibition curve) at K-Ras G12D was less than 100 nM; at K-Ras G12S, less than 100 nM; at K-Ras G12V, less than 100 nM; at K-Ras WT, less than 100 nM; in the test with GP2D cells, less than 500 nM; in the test on A549 cells, less than 5000 nM. The IC50 in the test with SW620 cells was less than 5000 nM.
Turning to `N#Cc1c(N)sc2c(F)ccc(-c3c(Cl)c4c5c(nc(OC[C@@]67CCCN6C[C@H](F)C7)nc5c3F)N([C@H]3CCOC3)CCO4)c12` [Compound 793, 2-amino-4-(8-chloro-10-fluoro-2-(((2R,7aS)-2-fluorotetrahydro-1H-pyrrolizin-7a(5H)-yl)methoxy)-4-((S)-tetrahydrofuran-3-yl)-5,6-dihydro-4H-[1,4]oxazepino[5,6,7-de]quinazolin-9-yl)-7-fluorobenzo[b]thiophene-3-carbonitrile], the IC50 was less than 100 nM at K-Ras G12D; less than 100 nM at K-Ras G12S; less than 100 nM on K-Ras G12V; less than 100 nM at K-Ras WT; less than 500 nM in the test on GP2D cells; less than 5000 nM in the test with A549 cells. In addition, the IC50 with SW620 cells was less than 5000 nM.
Turning to `N#Cc1c(N)sc2c(F)ccc(-c3c(Cl)c4c5c(nc(OC[C@@]67CCCN6C[C@H](F)C7)nc5c3F)N([C@@H]3CCN(C(=O)C(F)F)C3)CCO4)c12` [Compound 796, 2-amino-4-(8-chloro-4-((R)-1-(2,2-difluoroacetyl)pyrrolidin-3-yl)-10-fluoro-2-(((2R,7aS)-2-fluorotetrahydro-1H-pyrrolizin-7a(5H)-yl)methoxy)-5,6-dihydro-4H-[1,4]oxazepino[5,6,7-de]quinazolin-9-yl)-7-fluorobenzo[b]thiophene-3-carbonitrile], the concentration for half-maximal inhibition (IC50) on K-Ras G12D is less than 100 nM; on K-Ras G12S, less than 100 nM; at K-Ras G12V, less than 100 nM; at K-Ras WT, less than 100 nM; with GP2D cells, less than 500 nM; in the test on A549 cells it was less than 5000 nM. The half-inhibitory concentration (IC50) in the test on SW620 cells was less than 5000 nM.
For `N#Cc1c(N)sc2c(F)ccc(-c3c(Cl)c4c5c(nc(OC[C@@]67CCCN6C[C@H](F)C7)nc5c3F)N(CC3(C#N)CC3)CCO4)c12` [Compound 798, 2-amino-4-(8-chloro-4-((1-cyanocyclopropyl)methyl)-10-fluoro-2-(((2R,7aS)-2-fluorotetrahydro-1H-pyrrolizin-7a(5H)-yl)methoxy)-5,6-dihydro-4H-[1,4]oxazepino[5,6,7-de]quinazolin-9-yl)-7-fluorobenzo[b]thiophene-3-carbonitrile], the IC50 at K-Ras G12D was less than 100 nM; at K-Ras G12S, less than 100 nM; on K-Ras G12V, less than 100 nM; on K-Ras WT, less than 100 nM; in the test on GP2D cells, less than 500 nM; with A549 cells it was less than 5000 nM. Besides, the half-maximal inhibitory concentration (IC50) in the test on SW620 cells is less than 5000 nM.
In the case of `N#Cc1c(N)sc2c(F)ccc(-c3c(Cl)c4c5c(nc(OC[C@@]67CCCN6C[C@H](F)C7)nc5c3F)N(C3COCCOC3)CCO4)c12` [Compound 803, 2-amino-4-(8-chloro-4-(1,4-dioxepan-6-yl)-10-fluoro-2-(((2R,7aS)-2-fluorotetrahydro-1H-pyrrolizin-7a(5H)-yl)methoxy)-5,6-dihydro-4H-[1,4]oxazepino[5,6,7-de]quinazolin-9-yl)-7-fluorobenzo[b]thiophene-3-carbonitrile], the 50% inhibitory concentration (IC50) on K-Ras G12D was less than 100 nM; at K-Ras G12S it was less than 100 nM; on K-Ras G12V, less than 100 nM; on K-Ras WT, less than 100 nM; in the test with GP2D cells, less than 500 nM; with A549 cells, less than 5000 nM. The half-inhibitory concentration (IC50) with SW620 cells is less than 5000 nM.
Take `N#Cc1c(N)sc2c(F)ccc(-c3c(Cl)c4c5c(nc(OC[C@@]67CCCN6C[C@H](F)C7)nc5c3F)N(CCC(F)F)CCO4)c12` [Compound 807, 2-amino-4-(8-chloro-4-(3,3-difluoropropyl)-10-fluoro-2-(((2R,7aS)-2-fluorotetrahydro-1H-pyrrolizin-7a(5H)-yl)methoxy)-5,6-dihydro-4H-[1,4]oxazepino[5,6,7-de]quinazolin-9-yl)-7-fluorobenzo[b]thiophene-3-carbonitrile]: the half-maximal inhibitory concentration (IC50) at K-Ras G12D was less than 100 nM; at K-Ras G12S, less than 100 nM; at K-Ras G12V, less than 100 nM; at K-Ras WT, less than 100 nM; in the test with GP2D cells, less than 500 nM; in the test with A549 cells, less than 5000 nM. In addition, the IC50 in the test with SW620 cells is less than 5000 nM.
In the case of `N#Cc1c(N)sc2c(F)ccc(-c3c(Cl)c4c5c(nc(OC[C@@]67CCCN6C[C@H](F)C7)nc5c3F)N(C3CCN(C(=O)COC5CC5)C3)CCO4)c12` (stereo partly drawn) [Compound 812, 2-amino-4-(8-chloro-4-(1-(2-cyclopropoxyacetyl)pyrrolidin-3-yl)-10-fluoro-2-(((2R,7aS)-2-fluorotetrahydro-1H-pyrrolizin-7a(5H)-yl)methoxy)-5,6-dihydro-4H-[1,4]oxazepino[5,6,7-de]quinazolin-9-yl)-7-fluorobenzo[b]thiophene-3-carbonitrile], the half-inhibitory concentration (IC50) was less than 100 nM at K-Ras G12D; less than 100 nM on K-Ras G12S; less than 100 nM on K-Ras G12V; less than 100 nM at K-Ras WT; less than 500 nM with GP2D cells; less than 5000 nM in the test with A549 cells. In the test on SW620 cells, the IC50 is less than 5000 nM.
In the case of `C[C@H](O)[C@H]1COc2c(Cl)c(-c3ccc(F)c4sc(N)c(C#N)c34)c(F)c3nc(OC[C@@]45CCCN4C[C@H](F)C5)nc(c23)N1CC(F)F` [Compound 817, 2-amino-4-((5R)-8-chloro-4-(2,2-difluoroethyl)-10-fluoro-2-(((2R,7aS)-2-fluorotetrahydro-1H-pyrrolizin-7a(5H)-yl)methoxy)-5-((S)-1-hydroxyethyl)-5,6-dihydro-4H-[1,4]oxazepino[5,6,7-de]quinazolin-9-yl)-7-fluorobenzo[b]thiophene-3-carbonitrile], the concentration for half-maximal inhibition (IC50) is less than 100 nM on K-Ras G12D; less than 100 nM at K-Ras G12S; less than 100 nM at K-Ras G12V; less than 100 nM at K-Ras WT; less than 500 nM in the test on GP2D cells; less than 5000 nM in the test on A549 cells. In addition, the IC50 in the test with SW620 cells is less than 5000 nM.
As to `N#Cc1c(N)sc2c(F)ccc(-c3c(Cl)c4c5c(nc(OC[C@@]67CCCN6C[C@H](F)C7)nc5c3F)N(C3CCCOC3)CCO4)c12` (stereo partly drawn) [Compound 819, 2-amino-4-(8-chloro-10-fluoro-2-(((2R,7aS)-2-fluorotetrahydro-1H-pyrrolizin-7a(5H)-yl)methoxy)-4-(tetrahydro-2H-pyran-3-yl)-5,6-dihydro-4H-[1,4]oxazepino[5,6,7-de]quinazolin-9-yl)-7-fluorobenzo[b]thiophene-3-carbonitrile], the concentration for half-maximal inhibition (IC50) was less than 100 nM at K-Ras G12D; less than 100 nM on K-Ras G12S; less than 100 nM at K-Ras G12V; less than 100 nM on K-Ras WT; less than 500 nM in the test on GP2D cells; less than 5000 nM in the test on A549 cells. Further, in the test with SW620 cells, the IC50 is less than 5000 nM.
